From patent US20250213533A1 (GH RESEARCH IRELAND LIMITED, priority 2022, published 2025)

Assays:
5-HT1A receptors = target: T1, 5-HT1A receptors (Homo sapiens, UniProt P08908); experiment: Radioligand binding ([3H]8-OH-DPAT) to 5-HT1A receptors in post-mortem human hippocampus membranes
T1 construct: 5-HT1A and 5-HT2A receptors in post-mortem human brain tissue from the hippocampus and frontal cortex, respectively; tissue Edinburgh Sudden Death Brain Bank; host or cells: post-mortem human hippocampus membranes
T1 sequence (P08908 1-422): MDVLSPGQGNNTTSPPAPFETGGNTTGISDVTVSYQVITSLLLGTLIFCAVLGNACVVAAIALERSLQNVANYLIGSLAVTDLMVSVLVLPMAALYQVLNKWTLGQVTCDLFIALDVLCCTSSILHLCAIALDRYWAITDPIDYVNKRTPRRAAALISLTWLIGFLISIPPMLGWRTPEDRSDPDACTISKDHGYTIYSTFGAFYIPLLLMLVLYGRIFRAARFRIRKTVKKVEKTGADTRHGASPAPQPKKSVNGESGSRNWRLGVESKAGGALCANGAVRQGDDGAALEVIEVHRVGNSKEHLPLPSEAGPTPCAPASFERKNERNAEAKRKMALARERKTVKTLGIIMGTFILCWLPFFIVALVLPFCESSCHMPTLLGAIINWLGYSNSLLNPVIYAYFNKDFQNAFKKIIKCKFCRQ

5-HT2A receptors = target: T2, 5-HT2A receptors (Homo sapiens, UniProt P28223); experiment: Radioligand binding ([3H]MDL-100,907) to 5-HT2A receptors in post-mortem human frontal cortex membranes
T2 construct: 5-HT1A and 5-HT2A receptors in post-mortem human brain tissue from the hippocampus and frontal cortex, respectively; tissue Edinburgh Sudden Death Brain Bank; host or cells: post-mortem human frontal cortex membranes

[1] = Pharmacokinetics of 5-MeO-DMT and bufotenine after inhalation of 5-MeO-DMT in subjects; assay type: in vivo, human

T2 sequence (P28223 whole entry): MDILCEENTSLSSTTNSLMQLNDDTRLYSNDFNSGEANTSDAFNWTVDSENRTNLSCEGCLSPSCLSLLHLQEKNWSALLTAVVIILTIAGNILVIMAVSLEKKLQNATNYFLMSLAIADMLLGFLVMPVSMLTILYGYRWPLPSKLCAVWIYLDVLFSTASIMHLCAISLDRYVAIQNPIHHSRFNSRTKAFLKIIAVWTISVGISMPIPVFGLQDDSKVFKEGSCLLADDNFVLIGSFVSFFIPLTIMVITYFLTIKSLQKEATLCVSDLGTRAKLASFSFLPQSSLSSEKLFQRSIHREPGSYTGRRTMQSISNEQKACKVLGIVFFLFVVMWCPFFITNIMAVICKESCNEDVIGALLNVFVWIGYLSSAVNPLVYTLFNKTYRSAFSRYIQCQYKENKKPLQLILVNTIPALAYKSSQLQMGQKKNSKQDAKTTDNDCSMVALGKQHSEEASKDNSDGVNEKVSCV

Compound	affinity for 5-HT1A receptors (in words) (5-HT1A receptors)	affinity for 5-HT2A receptors (in words) (5-HT2A receptors)	bufotenine blood concentration above LLOQ (25 pg/ml) ([1]; metabolite after inhaled 5-MeO-DMT)	bufotenine observations when uptitration subjects were included ([1]; uptitration scheme)
CN(C)CCc1c[nH]c2ccccc12 [DMT, N,N-dimethyltryptamine]	moderate affinity	comparatively weak affinity		
CN(C)CCc1c[nH]c2ccc(O)cc12 [bufotenine]			Only in few samples	Substantially similar observations
CN(C)CCc1c[nH]c2cccc(O)c12 [psilocin]	moderate affinity	moderate/strong affinity		
